Measured values: paper PMC10041525, “New Dual Inhibitors of Bacterial Topoisomerases with Broad-Spectrum Antibacterial Activity and In Vivo Efficacy against Vancomycin-Intermediate Staphylococcus aureus” (Journal of Medicinal Chemistry, 2023)
In brackets after ≈: the same amount, converted by molar mass. Read-outs that look alike come from different tables or passages of the source.

Experiments:
in vitro = in vitro ADME, mouse; conditions: male, CD-1, mouse; for fraction unbound at 4 h, 5 μM: plasma (pooled), mouse plasma, read-out: fu, fraction unbound; for recovery at 4 h, 5 μM: plasma protein binding assay
Procedure: The PPB studies were performed by Selvita d.o.o. (Zagreb, Croatia) in mouse plasma (CD-1 male, pooled, commercially obtained from BioIVT) via equilibrium dialysis. Compounds were assayed at 5 μM (0.5% DMSO) in two replicates, and incubation time was 4 h at 37 °C. Samples were taken at 0 min and 4 h. Aliquots from both buffer and plasma compartment matrix were matched and mixed with 6 volumes of STOP solution (acetonitrile/methanol (2:1) + internal standard – diclofenac) and analyzed by LC–MS/MS. Assay controls were caffeine (low), verapamil (moderate binding), and nicardipine (very high binding), and protein contamination was checked.

[1] = tested on: 100 A. baumannii strains (50 MDR, 50 non-MDR); assay: MIC broth microdilution at IHMA Europe, panel of 100 strains; assay type: cell-based; conditions: for MIC / MIC50 / MIC90: Acinetobacter baumannii; for MIC50: read-out: MIC 50; for MIC90: read-out: MIC 90
[2] = tested on: N. gonorrhoeae ATCC 49226; assay: IHMA QC MIC; assay type: cell-based; conditions: Neisseria gonorrhoeae, ATCC49226; QC strain N. gonorrhoeae ATCC 49226, test date 2021-11-18; read-out: MIC
Source text: Supplement jm2c01905_si_004.xlsx, sheet "QC" | column: MIC [µg/mL]

Cc1[nH]c(C(=O)Nc2nc3c(N4C[C@H]5CC[C@@H](C4)O5)cc(C(=O)O)cc3s2)c(Cl)c1Cl [7g, 4-((1R,5S)-8-Oxa-3-azabicyclo[3.2.1]octan-3-yl)-2-(3,4-dichloro-5-methyl-1H-pyrrole-2-carboxamido)benzo[d]thiazole-6-carboxylic Acid] gave a fraction unbound at 4 h, 5 μM (in vitro) of 0.004 and a recovery at 4 h, 5 μM (in vitro) of 93.5%.
In the case of Cc1[nH]c(C(=O)Nc2nc3c(N4CCOC(C(F)(F)F)C4)cc(C(=O)O)cc3s2)c(Cl)c1Cl (stereo not drawn) [7i, 2-(3,4-Dichloro-5-methyl-1H-pyrrole-2-carboxamido)-4-(2-(trifluoromethyl)morpholino)benzo[d]thiazole-6-carboxylic Acid], the fraction unbound at 4 h, 5 μM (in vitro) is reported as < 0.001 and the recovery at 4 h, 5 μM (in vitro) is reported as 110%.
With O=C(O)c1cn(C2CC2)c2cc(N3CCNCC3)c(F)cc2c1=O [ciprofloxacin] the MIC ([1]; A. baumannii IHMA 1769393, Lithuania 2018, Non-MDR, read-out: MIC) was 0.5 µg/mL (≈ 1.51 µM), the MIC ([1]; A. baumannii IHMA 1769782, Israel 2018, MDR, read-out: MIC) was > 16 µg/mL and the MIC ([1]; A. baumannii IHMA 1769910, Israel 2018, Non-MDR, read-out: MIC) was 1 µg/mL (≈ 3.02 µM). For the same molecule, the MIC ([1]; A. baumannii IHMA 1790317, Czech Republic 2018, Non-MDR, read-out: MIC) was ≤ 0.06 µg/mL, the MIC ([1]; A. baumannii IHMA 1790916, Romania 2018, Non-MDR, read-out: MIC) was ≤ 0.06 µg/mL and the MIC ([1]; A. baumannii IHMA 1791877, Israel 2018, MDR, read-out: MIC) was > 16 µg/mL. For the same molecule, the MIC ([1]; A. baumannii IHMA 1792961, Jordan 2018, MDR, read-out: MIC) was > 16 µg/mL, the MIC ([1]; A. baumannii IHMA 1795669, Tunisia 2018, Non-MDR, read-out: MIC) was ≤ 0.06 µg/mL and the MIC ([1]; A. baumannii IHMA 1814276, Lebanon 2018, MDR, read-out: MIC) was > 16 µg/mL. The MIC ([1]; A. baumannii IHMA 1815198, Kuwait 2018, MDR, read-out: MIC) was > 16 µg/mL, the MIC ([1]; A. baumannii IHMA 1815856, Israel 2018, MDR, read-out: MIC) was > 16 µg/mL and the MIC ([1]; A. baumannii IHMA 1830924, United Kingdom 2018, Non-MDR, read-out: MIC) was 0.5 µg/mL (≈ 1.51 µM). The MIC ([1]; A. baumannii IHMA 1849819, Kuwait 2018, MDR, read-out: MIC) was > 16 µg/mL, the MIC ([1]; A. baumannii IHMA 1849829, Kuwait 2018, Non-MDR, read-out: MIC) was ≤ 0.06 µg/mL and the MIC ([1]; A. baumannii IHMA 1926285, Qatar 2018, Non-MDR, read-out: MIC) was ≤ 0.06 µg/mL. For the same molecule, the MIC ([1]; A. baumannii IHMA 1926288, Qatar 2018, MDR, read-out: MIC) was > 16 µg/mL, the MIC ([1]; A. baumannii IHMA 1963732, Turkey 2019, MDR, read-out: MIC) was > 16 µg/mL and the MIC ([1]; A. baumannii IHMA 1967860, Spain 2019, Non-MDR, read-out: MIC) was 1 µg/mL (≈ 3.02 µM). For the same molecule, the MIC ([1]; A. baumannii IHMA 1971673, Latvia 2019, MDR, read-out: MIC) was > 16 µg/mL, the MIC ([1]; A. baumannii IHMA 1983151, Greece 2019, MDR, read-out: MIC) was > 16 µg/mL and the MIC ([1]; A. baumannii IHMA 1984665, Lithuania 2019, MDR, read-out: MIC) was > 16 µg/mL. The MIC ([1]; A. baumannii IHMA 1986738, Turkey 2019, MDR, read-out: MIC) was > 16 µg/mL, the MIC ([1]; A. baumannii IHMA 1987162, Croatia 2019, MDR, read-out: MIC) was > 16 µg/mL and the MIC ([1]; A. baumannii IHMA 1993615, Turkey 2019, MDR, read-out: MIC) was > 16 µg/mL. For the same molecule, the MIC ([1]; A. baumannii IHMA 1994284, Italy 2019, MDR, read-out: MIC) was > 16 µg/mL, the MIC ([1]; A. baumannii IHMA 2003279, Turkey 2019, MDR, read-out: MIC) was > 16 µg/mL and the MIC ([1]; A. baumannii IHMA 2014931, South Africa 2019, Non-MDR, read-out: MIC) was 2 µg/mL (≈ 6.04 µM). For the same molecule, the MIC ([1]; A. baumannii IHMA 2020360, Croatia 2019, MDR, read-out: MIC) was > 16 µg/mL, the MIC ([1]; A. baumannii IHMA 2031511, Greece 2019, Non-MDR, read-out: MIC) was ≤ 0.06 µg/mL and the MIC ([1]; A. baumannii IHMA 2031524, Greece 2019, MDR, read-out: MIC) was > 16 µg/mL. For the same molecule, the MIC ([1]; A. baumannii IHMA 2035089, Serbia 2019, MDR, read-out: MIC) was > 16 µg/mL, the MIC ([1]; A. baumannii IHMA 2038976, Hungary 2019, MDR, read-out: MIC) was > 16 µg/mL and the MIC ([1]; A. baumannii IHMA 2051503, Serbia 2019, MDR, read-out: MIC) was > 16 µg/mL. For the same molecule, the MIC ([1]; A. baumannii IHMA 2065587, France 2019, Non-MDR, read-out: MIC) was ≤ 0.06 µg/mL, the MIC ([1]; A. baumannii IHMA 2129256, Qatar 2019, Non-MDR, read-out: MIC) was ≤ 0.06 µg/mL and the MIC ([1]; A. baumannii IHMA 2154584, Israel 2020, MDR, read-out: MIC) was > 16 µg/mL. The MIC ([1]; A. baumannii IHMA 2155340, Kenya 2020, MDR, read-out: MIC) was > 16 µg/mL, the MIC ([1]; A. baumannii IHMA 2156634, Turkey 2020, MDR, read-out: MIC) was > 16 µg/mL and the MIC ([1]; A. baumannii IHMA 2156709, Turkey 2020, MDR, read-out: MIC) was > 16 µg/mL. For the same molecule, the MIC ([1]; A. baumannii IHMA 2177232, Lithuania 2020, MDR, read-out: MIC) was > 16 µg/mL, the MIC ([1]; A. baumannii IHMA 2177489, Lithuania 2020, MDR, read-out: MIC) was > 16 µg/mL and the MIC ([1]; A. baumannii IHMA 2178574, Ukraine 2020, Non-MDR, read-out: MIC) was ≤ 0.06 µg/mL. For the same molecule, the MIC ([1]; A. baumannii IHMA 2180142, Malaysia 2020, MDR, read-out: MIC) was > 16 µg/mL, the MIC ([1]; A. baumannii IHMA 2181370, Morocco 2020, MDR, read-out: MIC) was > 16 µg/mL and the MIC ([1]; A. baumannii IHMA 2183729, Argentina 2020, MDR, read-out: MIC) was > 16 µg/mL. For the same molecule, the MIC ([1]; A. baumannii IHMA 2193375, Venezuela 2020, MDR, read-out: MIC) was > 16 µg/mL, the MIC ([1]; A. baumannii IHMA 2193485, Venezuela 2020, Non-MDR, read-out: MIC) was ≤ 0.06 µg/mL and the MIC ([1]; A. baumannii IHMA 2193607, Venezuela 2020, MDR, read-out: MIC) was > 16 µg/mL. For the same molecule, the MIC ([1]; A. baumannii IHMA 2195460, Italy 2020, MDR, read-out: MIC) was > 16 µg/mL, the MIC ([1]; A. baumannii IHMA 2196914, South Africa 2020, MDR, read-out: MIC) was > 16 µg/mL and the MIC ([1]; A. baumannii IHMA 2196959, South Africa 2020, MDR, read-out: MIC) was > 16 µg/mL. For the same molecule, the MIC ([1]; A. baumannii IHMA 2203763, Spain 2020, MDR, read-out: MIC) was > 16 µg/mL, the MIC ([1]; A. baumannii IHMA 2205144, Korea, South 2020, MDR, read-out: MIC) was > 16 µg/mL and the MIC ([1]; A. baumannii IHMA 2206459, Taiwan 2020, MDR, read-out: MIC) was > 16 µg/mL. The MIC ([1]; A. baumannii IHMA 2206507, Taiwan 2020, Non-MDR, read-out: MIC) was ≤ 0.06 µg/mL, the MIC ([1]; A. baumannii IHMA 2216586, Taiwan 2020, MDR, read-out: MIC) was > 16 µg/mL and the MIC ([1]; A. baumannii IHMA 2224017, Panama 2020, MDR, read-out: MIC) was > 16 µg/mL. For the same molecule, the MIC ([1]; A. baumannii IHMA 2231797, Greece 2020, MDR, read-out: MIC) was > 16 µg/mL, the MIC ([1]; A. baumannii IHMA 2233099, Guatemala 2020, MDR, read-out: MIC) was > 16 µg/mL and the MIC ([1]; A. baumannii IHMA 2233430, Kazakhstan 2020, MDR, read-out: MIC) was > 16 µg/mL. The MIC ([1]; A. baumannii IHMA 2238964, Thailand 2020, MDR, read-out: MIC) was > 16 µg/mL, the MIC ([1]; A. baumannii IHMA 2261047, Belgium 2020, MDR, read-out: MIC) was > 16 µg/mL and the MIC ([1]; A. baumannii IHMA 2274234, South Africa 2020, MDR, read-out: MIC) was > 16 µg/mL. For the same molecule, the MIC ([1]; A. baumannii IHMA 2274364, South Africa 2020, MDR, read-out: MIC) was > 16 µg/mL, the MIC ([1]; A. baumannii IHMA 2275751, Jordan 2020, MDR, read-out: MIC) was > 16 µg/mL and the MIC ([1]; A. baumannii IHMA 2316205, United States 2020, MDR, read-out: MIC) was > 16 µg/mL. For the same molecule, the MIC ([1]; MDR n = 50, read-out: MAX (maximum MIC; all strains inhibited)) was > 16 µg/mL, the MIC50 ([1]; MDR n = 50) was > 16 µg/mL and the MIC90 ([1]; MDR n = 50) was > 16 µg/mL. For the same molecule, the MIC ([1]; MDR n = 50, read-out: MIN (minimum MIC)) was > 16 µg/mL, the MIC ([1]; all isolates n = 100, read-out: MAX (maximum MIC; all strains inhibited)) was > 16 µg/mL and the MIC50 ([1]; all isolates n = 100) was 2 µg/mL (≈ 6.04 µM). For the same molecule, the MIC90 ([1]; all isolates n = 100) was > 16 µg/mL, the MIC ([1]; all isolates n = 100, read-out: MIN (minimum MIC)) was ≤ 0.06 µg/mL and the MIC ([1]; non-MDR n = 50, read-out: MAX (maximum MIC)) was 2 µg/mL (≈ 6.04 µM). For the same molecule, the MIC ([1]; non-MDR n = 50, read-out: MIN (minimum MIC)) was ≤ 0.06 µg/mL, the “Percentage I” value ([1]; MDR n = 50) was 0% and the “Percentage R” value ([1]; MDR n = 50) was 100%. For the same molecule, the “Percentage S” value ([1]; MDR n = 50) was 0%, the “Percentage I” value ([1]; non-MDR n = 50) was 2% and the “Percentage R” value ([1]; non-MDR n = 50) was 0%. For the same molecule, the “Percentage S” value ([1]; non-MDR n = 50) was 98% and the MIC [2] was 0.004 µg/mL (≈ 0.0121 µM).
